Results taken from PubChem BioAssay (NCI).
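Abbreviation: GI50, concentration required for 50% inhibition of growth. At the TGI there is no net growth.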

Columns and labels:
Assay in all cases: DTP human tumour cell line panel, 384-well format
DU-145 prostate = tested on: DU-145 prostate
OVCAR-5 ovarian = tested on: OVCAR-5 ovarian
PC-3 prostate = tested on: PC-3 prostate
SNB-75 CNS = tested on: SNB-75 CNS
HCT-15 colon = tested on: HCT-15 colon
HCC-2998 colon = tested on: HCC-2998 colon
CCRF-CEM leukemia = tested on: CCRF-CEM leukemia
M14 melanoma = tested on: M14 melanoma
SNB-19 CNS = tested on: SNB-19 CNS
COLO 205 colon = tested on: COLO 205 colon
HOP-92 NSCLC = tested on: HOP-92 NSCLC
NCI-H322M lung = tested on: NCI-H322M lung
CAKI-1 renal = tested on: CAKI-1 renal
TK-10 renal = tested on: TK-10 renal
RXF 393 renal = tested on: RXF 393 renal
MDA-MB-435 melanoma = tested on: MDA-MB-435 melanoma
HS 578T breast = tested on: HS 578T breast
MOLT-4 leukemia = tested on: MOLT-4 leukemia
OVCAR-4 ovarian = tested on: OVCAR-4 ovarian
LOX IMVI melanoma = tested on: LOX IMVI melanoma
SK-MEL-28 melanoma = tested on: SK-MEL-28 melanoma
MALME-3M melanoma = tested on: MALME-3M melanoma
SW-620 colon = tested on: SW-620 colon
UO-31 renal = tested on: UO-31 renal
786-0 renal = tested on: 786-0 renal
A498 renal = tested on: A498 renal
BT-549 breast = tested on: BT-549 breast
IGROV1 ovarian = tested on: IGROV1 ovarian
NCI-H460 NSCLC = tested on: NCI-H460 NSCLC
HL-60(TB) leukemia = tested on: HL-60(TB) leukemia
NCI/ADR-RES ovarian = tested on: NCI/ADR-RES ovarian
HOP-62 NSCLC = tested on: HOP-62 NSCLC
NCI-H23 lung = tested on: NCI-H23 lung
ACHN renal = tested on: ACHN renal
EKVX NSCLC = tested on: EKVX NSCLC
NCI-H226 lung = tested on: NCI-H226 lung
SN12C renal = tested on: SN12C renal
K-562 leukemia = tested on: K-562 leukemia
MDA-MB-231 breast = tested on: MDA-MB-231 breast
MDA-MB-468 breast = tested on: MDA-MB-468 breast
UACC-62 melanoma = tested on: UACC-62 melanoma
SK-MEL-5 melanoma = tested on: SK-MEL-5 melanoma
MCF7 breast = tested on: MCF7 breast
T-47D breast = tested on: T-47D breast
A549 NSCLC = tested on: A549 NSCLC
SF-268 CNS = tested on: SF-268 CNS
SK-OV-3 ovarian = tested on: SK-OV-3 ovarian
HT29 colon = tested on: HT29 colon
OVCAR-3 ovarian = tested on: OVCAR-3 ovarian
SF-295 CNS = tested on: SF-295 CNS
SR leukemia = tested on: SR leukemia
RPMI-8226 leukemia = tested on: RPMI-8226 leukemia
UACC-257 melanoma = tested on: UACC-257 melanoma
OVCAR-8 ovarian = tested on: OVCAR-8 ovarian
KM12 colon = tested on: KM12 colon
NCI-H522 lung = tested on: NCI-H522 lung
U251 glioblastoma = tested on: U251 glioblastoma
SF-539 CNS = tested on: SF-539 CNS

SMILES: CNc1nc(-c2ccc3c(N)n[nH]c3c2)cc(N2C[C@@H](C(=O)NC3CCCCC3)CC[C@H]2C)n1
- GI50 (DU-145 prostate): 10.3 µM
- TGI (DU-145 prostate): 22.1 µM
- GI50 (OVCAR-5 ovarian): 1.64 µM
- TGI (OVCAR-5 ovarian): 6.52 µM
- GI50 (PC-3 prostate): 0.877 µM
- TGI (PC-3 prostate): 14.7 µM
- GI50 (SNB-75 CNS): 1.19 µM
- TGI (SNB-75 CNS): 13.4 µM
- GI50 (HCT-15 colon): 2.81 µM
- TGI (HCT-15 colon): 13.9 µM
- GI50 (HCC-2998 colon): 2.73 µM
- TGI (HCC-2998 colon): 13.9 µM
- GI50 (CCRF-CEM leukemia): 1.04 µM
- TGI (CCRF-CEM leukemia): 3.12 µM
- GI50 (M14 melanoma): 1.7 µM
- TGI (M14 melanoma): 17.8 µM
- GI50 (SNB-19 CNS): 7.1 µM
- TGI (SNB-19 CNS): 20 µM
- GI50 (COLO 205 colon): 1.56 µM
- TGI (COLO 205 colon): 11 µM
- GI50 (HOP-92 NSCLC): 0.99 µM
- TGI (HOP-92 NSCLC): 6.78 µM
- GI50 (NCI-H322M lung): 7.92 µM
- TGI (NCI-H322M lung): 20.7 µM
- GI50 (CAKI-1 renal): 1.61 µM
- TGI (CAKI-1 renal): 15.2 µM
- GI50 (TK-10 renal): 3.15 µM
- TGI (TK-10 renal): 16.4 µM
- GI50 (RXF 393 renal): 2.97 µM
- TGI (RXF 393 renal): 13 µM
- GI50 (MDA-MB-435 melanoma): 3.29 µM
- TGI (MDA-MB-435 melanoma): 16.9 µM
- GI50 (HS 578T breast): 1.33 µM
- TGI (HS 578T breast): 6.42 µM
- GI50 (MOLT-4 leukemia): 0.545 µM
- TGI (MOLT-4 leukemia): 1.9 µM
- GI50 (OVCAR-4 ovarian): 2.58 µM
- TGI (OVCAR-4 ovarian): 13.3 µM
- GI50 (LOX IMVI melanoma): 4.8 µM
- TGI (LOX IMVI melanoma): 17.4 µM
- GI50 (SK-MEL-28 melanoma): 1.54 µM
- TGI (SK-MEL-28 melanoma): 12.5 µM
- GI50 (MALME-3M melanoma): 0.157 µM
- TGI (MALME-3M melanoma): 2.01 µM
- GI50 (SW-620 colon): 11.6 µM
- TGI (SW-620 colon): 24 µM
- GI50 (UO-31 renal): 5.39 µM
- TGI (UO-31 renal): 19.4 µM
- GI50 ([…]-0 renal): 3.25 µM
- TGI (786-0 renal): 13.8 µM
- GI50 (A498 renal): 0.666 µM
- TGI (A498 renal): 7.16 µM
- GI50 (BT-549 breast): 1.72 µM
- TGI (BT-549 breast): 13.9 µM
- GI50 (IGROV1 ovarian): 2.66 µM
- TGI (IGROV1 ovarian): 10.1 µM
- GI50 (NCI-H460 NSCLC): 1.6 µM
- TGI (NCI-H460 NSCLC): 13.9 µM
- GI50 (HL-60(TB) leukemia): 1.26 µM
- TGI (HL-60(TB) leukemia): 2.85 µM
- GI50 (NCI/ADR-RES ovarian): 13.5 µM
- TGI (NCI/ADR-RES ovarian): 26.4 µM
- GI50 (HOP-62 NSCLC): 7.05 µM
- TGI (HOP-62 NSCLC): 20.3 µM
- GI50 (NCI-H23 lung): 1.86 µM
- TGI (NCI-H23 lung): 13.2 µM
- GI50 (ACHN renal): 4.99 µM
- TGI (ACHN renal): 20.8 µM
- GI50 (EKVX NSCLC): 2.17 µM
- TGI (EKVX NSCLC): 15 µM
- GI50 (NCI-H226 lung): 2.15 µM
- TGI (NCI-H226 lung): 14 µM
- GI50 (SN12C renal): 1.9 µM
- TGI (SN12C renal): 15.5 µM
- GI50 (K-562 leukemia): 4.88 µM
- TGI (K-562 leukemia): 17.4 µM
- GI50 (MDA-MB-231 breast): 1.91 µM
- TGI (MDA-MB-231 breast): 16.7 µM
- GI50 (MDA-MB-468 breast): 0.213 µM
- TGI (MDA-MB-468 breast): 0.997 µM
- GI50 (UACC-62 melanoma): 1.93 µM
- TGI (UACC-62 melanoma): 13.5 µM
- GI50 (SK-MEL-5 melanoma): 0.798 µM
- TGI (SK-MEL-5 melanoma): 2.81 µM
- GI50 (MCF7 breast): 0.417 µM
- TGI (MCF7 breast): 2.95 µM
- GI50 (T-47D breast): 0.0787 µM
- TGI (T-47D breast): 1.58 µM
- GI50 (A549 NSCLC): 3.78 µM
- TGI (A549 NSCLC): 16.2 µM
- GI50 (SF-268 CNS): 5.21 µM
- TGI (SF-268 CNS): 19.3 µM
- GI50 (SK-OV-3 ovarian): 1.68 µM
- TGI (SK-OV-3 ovarian): 12.1 µM
- GI50 (HT29 colon): 3.45 µM
- TGI (HT29 colon): 18 µM
- GI50 (OVCAR-3 ovarian): 3.45 µM
- TGI (OVCAR-3 ovarian): 16.7 µM
- GI50 (SF-295 CNS): 4.81 µM
- TGI (SF-295 CNS): 18.3 µM
- GI50 (SR leukemia): 0.475 µM
- TGI (SR leukemia): 8.48 µM
- GI50 (RPMI-8226 leukemia): 0.471 µM
- TGI (RPMI-8226 leukemia): 3.49 µM
- GI50 (UACC-257 melanoma): 1.62 µM
- TGI (UACC-257 melanoma): 10.5 µM
- GI50 (OVCAR-8 ovarian): 9.7 µM
- TGI (OVCAR-8 ovarian): 21.6 µM
- GI50 (KM12 colon): 10.1 µM
- TGI (KM12 colon): 21.8 µM
- GI50 (NCI-H522 lung): 6.52 µM
- TGI (NCI-H522 lung): 19.9 µM
- GI50 (U251 glioblastoma): 10.4 µM
- TGI (U251 glioblastoma): 22.4 µM
- GI50 (SF-539 CNS): 3.52 µM
- TGI (SF-539 CNS): 15.8 µM
